Source: the SangsterLogP compilation

Assay: method code SF, from DOI: 10.1002/jps.2600780616, PMID: 2527297
Details: pH 7.4

SMILES	logD
CC(C)(C)c1ccc2oc(N(N)CCC#N)nc2c1	2.82
N#CCCN(N)c1nc2cc(C#N)ccc2o1	0.42
COc1ccc2oc(N(N)CCC#N)nc2c1	0.98
CSc1ccc2oc(N(N)CCC#N)nc2c1	1.5
CCc1ccc2oc(N(N)CCC#N)nc2c1	1.91
N#CCCN(N)c1nc2cc(C(F)(F)F)ccc2o1	1.72
CS(=O)(=O)c1ccc2oc(N(N)CCC#N)nc2c1	-0.58
N#CCCN(N)c1nc2cc(F)ccc2o1	1.09
N#CCCN(N)c1nc2ccccc2o1	0.9
N#CCCN(N)c1nc2cc(Cl)ccc2o1	1.72
N#CCCN(N)c1nc2cc(C(=O)c3ccccc3)ccc2o1	1.94
Cc1ccc2oc(N(N)CCC#N)nc2c1	1.48
N#CCCN(N)c1nc2cc(OCc3ccccc3)ccc2o1	2.52
CS(=O)c1ccc2oc(N(N)CCC#N)nc2c1 (centres undefined)	-0.53
